Where two headings read alike, the source gives them in different places.
Key:
[1] = test system: HCV replicon; experiment: HCV replicon FRET assay; format: cell-based; conditions: Hepatitis C virus, FRET assay, read-out: EC50*
Outline: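 HCV replicon cells, with or without Renilla luciferase reporter, incubated with titrated compounds at 37 °C; Alamar blue read for cytotoxicity. NS3 protease activity read from lysates with 20 μM EDANS/DABCYL FRET peptide (340/490 nm, kinetic), or by Dual-Glo luciferase. Background from highest protease-inhibitor wells; EC50 = 50% signal reduction.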

[2] = target: T1, HCV NS5B (Hepatitis C virus genotype 1b, UniProt Q9WMX2); experiment: HCV NS5B RdRp enzyme assay (preincubation protocol); format: biochemical
T1 construct: The protein was expressed with an 18 amino acid C-terminal truncation to enhance the solubility; made in house; host or cells: E. coli BL21 (DE3), pET21a
T1 sequence (Q9WMX2 2420-2992): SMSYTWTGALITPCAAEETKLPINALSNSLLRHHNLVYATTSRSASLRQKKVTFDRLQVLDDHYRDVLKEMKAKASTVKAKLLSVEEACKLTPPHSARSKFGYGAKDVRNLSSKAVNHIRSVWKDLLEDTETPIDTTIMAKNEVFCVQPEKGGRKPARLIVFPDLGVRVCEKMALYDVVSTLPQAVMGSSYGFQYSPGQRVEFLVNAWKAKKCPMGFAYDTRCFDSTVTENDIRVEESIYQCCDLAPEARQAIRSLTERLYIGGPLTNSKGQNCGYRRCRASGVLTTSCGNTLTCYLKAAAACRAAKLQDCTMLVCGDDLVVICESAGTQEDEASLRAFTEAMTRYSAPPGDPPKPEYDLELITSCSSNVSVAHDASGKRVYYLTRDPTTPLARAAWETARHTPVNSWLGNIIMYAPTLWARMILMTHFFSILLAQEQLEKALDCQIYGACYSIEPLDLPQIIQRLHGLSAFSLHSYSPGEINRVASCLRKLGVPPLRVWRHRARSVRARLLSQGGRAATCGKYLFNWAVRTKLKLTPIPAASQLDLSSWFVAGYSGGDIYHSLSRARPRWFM
Outline: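 Preincubation format: enzyme (14 nM, genotype 1b, 18-residue C-terminal truncation) meets diluted compound first; reaction started with bead-bound biotinylated dT12 primer, polyA template 0.2 nM and 0.29 μM 3H-UTP. Run 4 h, 30 °C in Hepes pH 7.5; scintillation proximity signal; IC50 fitted from seven inhibitor levels.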

SMILES | EC50 ([1]; Table 1) [nM] | IC50 ([2]; Table 1, read-out: IC50*) [nM] | other results
CCN(C)C(=O)CN(C)C(=O)C1=Cc2cc(OC)ccc2-c2c(C3CCCCC3)c3ccc(C(=O)NS(=O)(=O)N(C)C)cc3n2C1 |  |  | EC50 ([1]; Table 1a): 30 to 1000 nM; IC50 ([2]; Table 1a, read-out: IC50*): 10 to 1000 nM
CN1CCCC(CN(C)C(=O)C2=Cc3ccccc3-c3c(C4CCCCC4)c4ccc(C(=O)N(C)CC5CCCN(C)C5)cc4n3C2)C1 (stereo not drawn) | 1000 to 10000 | 10 to 1000 | 
CC1CN(C(=O)OC(C)(C)C)CCN1C(=O)C1=Cc2ccccc2-c2c(C3CCCCC3)c3ccc(C(=O)NS(=O)(=O)N(C)C)cc3n2C1 (stereo not drawn) | 70 to 1000 | 10 to 1000 | 
Cc1ccc(S(=O)(=O)N2CCN(C(=O)C3=Cc4ccccc4-c4c(C5CCCCC5)c5ccc(C(=O)NS(=O)(=O)N(C)C)cc5n4C3)CC2)cc1 | 70 to 1000 | 10 to 1000 | 
CN(C)S(=O)(=O)NC(=O)c1ccc2c(C3CCCCC3)c3n(c2c1)CC(C(=O)N1CCN(c2ncccn2)CC1)=Cc1ccccc1-3 | 70 to 1000 | 10 to 1000 | 
COc1ccc2c(c1)CC(NC(=O)N(C)CC(=O)NC1CC1)Cn1c-2c(C2CCCCC2)c2ccc(C(=O)NS(=O)(=O)N(C)C)cc21 (stereo not drawn) |  |  | EC50 ([1]; Table 1b): 30 to 1000 nM; IC50 ([2]; Table 1b, read-out: IC50*): 20 to 1000 nM
CCS(=O)(=O)N1CCN(C(=O)C2=Cc3ccccc3-c3c(C4CCCCC4)c4ccc(C(=O)NS(=O)(=O)N(C)C)cc4n3C2)CC1 | 70 to 1000 | 10 to 1000 | 
COc1ccc2c(c1)C=C(C(=O)N(C)[C@H](C(=O)O)C(C)C)Cn1c-2c(C2CCCCC2)c2ccc(C(=O)NS(=O)(=O)N(C)C)cc21 |  |  | EC50 ([1]; Table 1b): 30 to 1000 nM; IC50 ([2]; Table 1b, read-out: IC50*): < 20 nM
O=C(O)c1ccc2c(C3CCCCC3)c3n(c2c1)CC(C(=O)N1CCC(N2CCOCC2)CC1)=Cc1ccccc1-3 | 70 to 1000 | 10 to 1000 | 
O=C(O)c1ccc2c(C3CCCCC3)c3n(c2c1)CC(C(=O)N1CCC(N2CCCC(F)C2)CC1)=Cc1ccccc1-3 (stereo not drawn) | 70 to 1000 | 10 to 1000 | 
COc1ccc2c(c1)C=C(C(=O)N1C[C@@H](C)O[C@@H](C)C1)Cn1c-2c(C2CCCCC2)c2ccc(C(=O)NS(=O)(=O)N3CCCC3)cc21 |  |  | EC50 ([1]; Table 1b): 30 to 1000 nM; IC50 ([2]; Table 1b, read-out: IC50*): 20 to 1000 nM
COC(=O)c1ccc2c(C3CCCCC3)c3n(c2c1)CC(C(=O)N1CCCC(C(N)=O)C1)=Cc1ccccc1-3 (stereo not drawn) | 1000 to 10000 | > 1000 | 
COc1ccc2c(c1)CC(NC(=O)N1CCS(=O)(=O)CC1)Cn1c-2c(C2CCCCC2)c2ccc(C(=O)NS(=O)(=O)N(C)C)cc21 (stereo not drawn) |  |  | EC50 ([1]; Table 1a): 30 to 1000 nM; IC50 ([2]; Table 1a, read-out: IC50*): 10 to 1000 nM
COc1ccc2c(c1)CC(NC(=O)NCCN1CCOCC1)Cn1c-2c(C2CCCCC2)c2ccc(C(=O)NS(=O)(=O)N(C)C)cc21 (stereo not drawn) |  |  | EC50 ([1]; Table 1a): 30 to 1000 nM; IC50 ([2]; Table 1a, read-out: IC50*): 10 to 1000 nM
COc1ccc2c(c1)CC(NC(=O)N1CC(OC)C1)Cn1c-2c(C2CCCCC2)c2ccc(C(=O)NS(=O)(=O)N(C)C)cc21 (stereo not drawn) |  |  | EC50 ([1]; Table 1b): 30 to 1000 nM; IC50 ([2]; Table 1b, read-out: IC50*): 20 to 1000 nM
CN(C)S(=O)(=O)NC(=O)c1ccc2c(C3CCCCC3)c3n(c2c1)CC(C(=O)N1CCC(N2CC[C@@H](F)C2)CC1)=Cc1ccccc1-3 | 70 to 1000 | 10 to 1000 | 
COC(=O)c1ccc2c(C3CCCCC3)c3n(c2c1)CC(C(=O)N1CC[C@H](F)C1)=Cc1ccccc1-3 | > 370 | > 1000 | 
COc1ccc2c(c1)CC(NC(=O)N1CC(O)C1)Cn1c-2c(C2CCCCC2)c2ccc(C(=O)NS(=O)(=O)N(C)C)cc21 (stereo not drawn) |  |  | EC50 ([1]; Table 1b): 30 to 1000 nM; IC50 ([2]; Table 1b, read-out: IC50*): 20 to 1000 nM
COc1ccc2c(c1)C=C(C(=O)N1CCN(S(=O)(=O)N(C)C)CC1)Cn1c-2c(C2CCCCC2)c2ccc(C(=O)NS(=O)(=O)N(C)C)cc21 | 70 to 1000 | 10 to 1000 | 
CN(C)C(=O)CN(C)C(=O)C1=Cc2ccccc2-c2c(C3CCCCC3)c3ccc(C(=O)Nc4ccccn4)cc3n2C1 |  |  | EC50 ([1]; Table 1b): 1000 to 10000 nM; IC50 ([2]; Table 1b, read-out: IC50*): 20 to 1000 nM
COc1ccc2c(c1)C=C(C(=O)N(C)CC(=O)N(C)C)Cn1c-2c(C2CCCCC2)c2ccc(C(=O)NS(=O)(=O)N(C)C)cc21 [drawing 162] | 70 to 1000 | 10 to 1000 | 
